Assay results published in patent US12599136B2, “Substituted isophthalic acid diamides and their use as herbicides” (Bayer Aktiengesellschaft, priority 2020, dated 2026).

How the values were obtained:
Format in all cases: in vivo
[1] = system: Echinochloa crus-galli; assay: Pre-emergence herbicidal action against ECHCG; conditions: visual score after 3 weeks vs untreated controls
Method in brief: (§1)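 Greenhouse pots of sandy loam held seeds covered with soil, onto which the compound was applied before emergence. An aqueous suspension or emulsion of WP or EC was used at 600 to 800 l/ha with 0.2% wetting agent. Percent damage was judged visually at 3 weeks.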

[2] = system: Matricaria inodora; assay: Post-emergence herbicidal action against MATIN; conditions: visual assessment about 3 weeks after treatment
Method in brief: (§2)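 A WP or EC formulation diluted in water with 0.2% wetting agent was sprayed at 600 to 800 l/ha onto one-leaf-stage plants grown in sandy loam. About 3 weeks later, action was rated visually in percent, 100% being dead plants.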

[3] = system: Setaria viridis; assay: Pre-emergence herbicidal action against SETVI
Method in brief: as §1

[4] = system: Digitaria sanguinalis; assay: Pre-emergence herbicidal action against DIGSA
Method in brief: as §1

[5] = system: Veronica persica; assay: Pre-emergence herbicidal action against VERPE
Method in brief: as §1

[6] = system: Alopecurus myosuroides; assay: Pre-emergence herbicidal action against ALOMY; conditions: 80 g/ha; visual score after 3 weeks vs untreated controls
Method in brief: as §1

[7] = system: Abutilon theophrasti; assay: Post-emergence herbicidal action against ABUTH
Method in brief: as §2

[8] = system: Viola tricolor; assay: Pre-emergence herbicidal action against VIOTR
Method in brief: as §1

[9] = system: Avena fatua; assay: Post-emergence herbicidal action against AVEFA; conditions: visual assessment about 3 weeks after treatment
Method in brief: as §2

[10] = system: Setaria viridis; assay: Post-emergence herbicidal action against SETVI; conditions: 20 g/ha, visual assessment about 3 weeks after treatment
Method in brief: as §2

[11] = system: Abutilon theophrasti; assay: Pre-emergence herbicidal action against ABUTH; conditions: visual score after 3 weeks vs untreated controls
Method in brief: as §1

[12] = system: Matricaria inodora; assay: Pre-emergence herbicidal action against MATIN; conditions: visual score after 3 weeks vs untreated controls
Method in brief: as §1

[13] = system: Veronica persica; assay: Post-emergence herbicidal action against VERPE; conditions: 20 g/ha, visual assessment about 3 weeks after treatment
Method in brief: as §2

[14] = system: Amaranthus retroflexus; assay: Pre-emergence herbicidal action against AMARE; conditions: visual score after 3 weeks vs untreated controls
Method in brief: as §1

[15] = system: Avena fatua; assay: Pre-emergence herbicidal action against AVEFA; conditions: visual score after 3 weeks vs untreated controls
Method in brief: as §1

[16] = system: Pharbitis purpurea; assay: Post-emergence herbicidal action against PHBPU; conditions: visual assessment about 3 weeks after treatment
Method in brief: as §2

[17] = system: Echinochloa crus-galli; assay: Post-emergence herbicidal action against ECHCG; conditions: visual assessment about 3 weeks after treatment
Method in brief: as §2

[18] = system: Polygonum convolvulus; assay: Pre-emergence herbicidal action against POLCO
Method in brief: as §1

[19] = system: Pharbitis purpurea; assay: Pre-emergence herbicidal action against PHBPU; conditions: visual score after 3 weeks vs untreated controls
Text: (§3) Seeds of monocotyledonous and dicotyledonous weed plants and crop plants are laid out in sandy loam soil in wood-fiber pots and covered with soil. The compounds of the invention, formulated in the form of wettable powders (WP) or as emulsion concentrates (EC), are then applied to the surface of the covering soil in the form of an aqueous suspension or emulsion at a water application rate equivalent to 600 to 800 l/ha, with addition of 0.2% wetting agent. After the treatment, the pots are placed in a greenhouse and kept under good growth conditions for the trial plants. The damage to the test plants is scored visually after a test period of 3 weeks by comparison with untreated controls (herbicidal activity in percent (%): 100% activity=the plants have died, 0% activity=like control plants). […] The tables below illustrate, in an illustrative manner, the post-emergence herbicidal action of the compounds of the invention, the herbicidal activity being stated in percent.

[20] = system: Amaranthus retroflexus; assay: Post-emergence herbicidal action against AMARE; conditions: visual assessment about 3 weeks after treatment
Method in brief: as §2

[21] = system: Stellaria media; assay: Post-emergence herbicidal action against STEME; conditions: visual assessment about 3 weeks after treatment
Method: Seeds of monocotyledonous and dicotyledonous weed and crop plants are laid out in sandy loam soil in wood-fiber pots, covered with soil and cultivated in a greenhouse under good growth conditions. 2 to 3 weeks after sowing, the test plants are treated at the one-leaf stage. The compounds of the invention, formulated in the form of wettable powders (WP) or as emulsion concentrates (EC), are then sprayed onto the green parts of the plants in the form of an aqueous suspension or emulsion at a water application rate equivalent to 600 to 800 l/ha, with addition of 0.2% wetting agent. After the test plants have been left to stand in the greenhouse under optimal growth conditions for about 3 weeks, the action of the preparations is assessed visually in comparison to untreated controls (herbicidal action in percent (%): 100% activity=the plants have died, 0% activity=like control plants). […] The tables below illustrate, in an illustrative manner, the post-emergence herbicidal action of the compounds of the invention, the herbicidal activity being stated in percent.

[22] = system: Stellaria media; assay: Pre-emergence herbicidal action against STEME
Text: as §3

[23] = system: Cyperus esculentus; assay: Pre-emergence herbicidal action against CYPES; conditions: visual score after 3 weeks vs untreated controls
Text: as §3

[24] = system: Viola tricolor; assay: Post-emergence herbicidal action against VIOTR; conditions: 80 g/ha
Method in brief: as §2

## CCn1nnnc1NC(=O)c1ccc(C(F)(F)F)c(C(=O)N(C)CC(F)F)c1Cl [Example 2-128]
[1]; 80 g/ha
  Pre-emergence action against ECHCG: 90%
[2]; 5 g/ha
  Post-emergence action against MATIN in %: 80%
[2]; 20 g/ha
  Post-emergence action against MATIN in %: 90%
[3]; 80 g/ha
  Pre-emergence action against SETVI: 100%
[4]; 20 g/ha
  Pre-emergence action against DIGSA: 90%
[4]; 80 g/ha
  Pre-emergence action against DIGSA: 100%
[5]; 80 g/ha
  Pre-emergence action against VERPE: 100%
[6]
  Pre-emergence action against ALOMY: 100%
[7]; 5 g/ha
  Post-emergence action against ABUTH: 80%
[7]; 20 g/ha
  Post-emergence action against ABUTH: 80%
[8]; 20 g/ha
  Pre-emergence action against VIOTR: 100%
[8]; 80 g/ha
  Pre-emergence action against VIOTR: 100%
[9]; 20 g/ha
  Post-emergence action against AVEFA in %: 80%
[10]
  Post-emergence action against SETVI in %: 80%
[11]; 80 g/ha
  Pre-emergence action against ABUTH: 100%
[12]; 20 g/ha
  Pre-emergence action against MATIN: 100%
[12]; 80 g/ha
  Pre-emergence action against MATIN: 100%
[13]
  Post-emergence action against VERPE in %: 80%
[14]; 20 g/ha
  Pre-emergence action against AMARE: 100%
[14]; 80 g/ha
  Pre-emergence action against AMARE: 100%
[15]; 80 g/ha
  Pre-emergence action against AVEFA: 100%
[16]; 5 g/ha
  Post-emergence action against PHBPU in %: 80%
[16]; 20 g/ha
  Post-emergence action against PHBPU in %: 80%
[17]; 20 g/ha
  Post-emergence action against ECHCG in %: 80%
[18]; 80 g/ha
  Pre-emergence action against POLCO: 100%
[19]; 80 g/ha
  Pre-emergence action against PHBPU: 80%

## CCCn1nnnc1NC(=O)c1ccc(C(F)(F)F)c(C(=O)n2cccn2)c1Cl [Example 3-153]
[1]; 80 g/ha
  Pre-emergence action against ECHCG: 90%
[1]; 320 g/ha
  Pre-emergence action against ECHCG: 100%
[2]; 5 g/ha
  Post-emergence action against MATIN in %: 80%
[2]; 20 g/ha
  Post-emergence action against MATIN in %: 90%
[2]; 80 g/ha
  Post-emergence action against MATIN in %: 100%
[3]; 20 g/ha
  Pre-emergence action against SETVI: 90%
[3]; 80 g/ha
  Pre-emergence action against SETVI: 100%
[3]; 320 g/ha
  Pre-emergence action against SETVI: 100%
[20]; 5 g/ha
  Post-emergence action against AMARE in %: 90%
[20]; 20 g/ha
  Post-emergence action against AMARE in %: 90%
[20]; 80 g/ha
  Post-emergence action against AMARE in %: 100%
[5]; 320 g/ha
  Pre-emergence action against VERPE: 90%
[21]; 5 g/ha
  Post-emergence action against STEME in %: 100%
[21]; 20 g/ha
  Post-emergence action against STEME in %: 100%
[21]; 80 g/ha
  Post-emergence action against STEME in %: 100%
[7]; 5 g/ha
  Post-emergence action against ABUTH: 90%
[7]; 20 g/ha
  Post-emergence action against ABUTH: 90%
[7]; 80 g/ha
  Post-emergence action against ABUTH: 90%
[22]; 20 g/ha
  Pre-emergence action against STEME: 90%
[22]; 80 g/ha
  Pre-emergence action against STEME: 100%
[22]; 320 g/ha
  Pre-emergence action against STEME: 100%
[8]; 20 g/ha
  Pre-emergence action against VIOTR: 90%
[8]; 80 g/ha
  Pre-emergence action against VIOTR: 100%
[8]; 320 g/ha
  Pre-emergence action against VIOTR: 100%
[9]; 80 g/ha
  Post-emergence action against AVEFA in %: 80%
[11]; 20 g/ha
  Pre-emergence action against ABUTH: 100%
[11]; 80 g/ha
  Pre-emergence action against ABUTH: 100%
[11]; Dosage column 320 g/ha (heading prints 3200 g/ha)
  Pre-emergence action against ABUTH: 100%
[12]; 20 g/ha
  Pre-emergence action against MATIN: 80%
[12]; 80 g/ha
  Pre-emergence action against MATIN: 100%
[12]; 320 g/ha
  Pre-emergence action against MATIN: 100%
[14]; 20 g/ha
  Pre-emergence action against AMARE: 100%
[14]; 80 g/ha
  Pre-emergence action against AMARE: 100%
[14]; 320 g/ha
  Pre-emergence action against AMARE: 100%
[15]; 320 g/ha
  Pre-emergence action against AVEFA: 90%
[16]; 5 g/ha
  Post-emergence action against PHBPU in %: 80%
[16]; 20 g/ha
  Post-emergence action against PHBPU in %: 80%
[16]; 80 g/ha
  Post-emergence action against PHBPU in %: 90%
[17]; 20 g/ha
  Post-emergence action against ECHCG in %: 80%
[17]; 80 g/ha
  Post-emergence action against ECHCG in %: 100%
[18]; 320 g/ha
  Pre-emergence action against POLCO: 90%
[19]; 320 g/ha
  Pre-emergence action against PHBPU: 100%
[23]; 80 g/ha
  Pre-emergence action against CYPES: 80%
[23]; 320 g/ha
  Pre-emergence action against CYPES: 80%
[24]
  Post-emergence action against VIOTR in %: 90%
